# According to patent publication US10570104B2, “Metabolically programmed metal chelators and uses thereof” (University of Florida Research Foundation, Incorporated, priority 2015, dated 2020):
# Entries after “also recorded” stand apart in the source; their conditions may differ. Like-named read-outs stand apart in the source and are kept apart here.
# Columns and labels:
# [1] = log Papp, octanol/TRIS buffer pH 7.4, shake flask direct method; format: physicochemical; conditions: not told
# Description: The redesign of 2 was predicated on the observation that both ligands 2 and 3 were orally active iron chelators in rodents and primates (Table 1), and that when the 4′-(OH) of 2 was methylated, providing (S)-4,5-dihydro-2-(2-hydroxy-4-methoxyphenyl)-4-methyl-4-thiazolecarboxylic acid^43 [(S)-4′-(CH3O)-DADFT, 4], there was a remarkable enhancement in both ICE and lipophilicity (log Papp). The log Papp data are expressed as the log of the fraction of the chelator seen in the octanol layer; measurements were done in TRIS buffer, pH 7.4, using a “shake flask” direct method.^49 The more negative the log Papp, the less chelator is in the octanol phase, the less lipophilic. Unfortunately, the increase in ICE of 4 came with a concomitant increase in toxicity.^50 Thus, the delicate balance between the increase in ICE and toxicity with enhanced lipophilicity needed to be understood and exploited.
# [2] = cited from earlier work
# [3] = cited from earlier work; remark: listed apart in the source
# [4] = 2:1 complex with Fe(III), cited from earlier work
# [5] = rats; cited from earlier work
# [6] = cited from earlier work; remark: listed apart in the source
# [7] = Tissue distribution/metabolism of chelators in rats given sc (HPLC); format: in vivo, Sprague-Dawley rats; conditions: sc 7, plasma, 0.5 hour
# Experimental: Collection of Chelator Tissue Distribution Samples from Rodents. Male Sprague-Dawley rats (250-350 g) were given a single subcutaneously injection of the monosodium salts of 8 and 11 prepared as described above at a dose of […]. At times 0.5, 1, 2, 4 and 8 hours after dosing (n=3 rats per time point), the animals were euthanized by exposure to CO2 gas. Blood was obtained via cardiac puncture into vacutainers containing sodium citrate. The blood was centrifuged, and the plasma was separated for analysis. The liver, kidney, heart, and pancreas were removed from the animals and frozen.
# Tissue Analytical Methods. Tissue samples of animals treated with 8 were prepared for HPLC analysis by homogenizing them in H2O at a ratio of 1:1 (w/v). Then, as a rinse, CH3OH at a ratio of 1:3 (w/v) was added, and the mixture was stored at −20° C. for 30 min. This homogenate was centrifuged. The supernatant was diluted with H2O, vortexed, and filtered with a 0.2 μm membrane. Analytical separation was performed on a Supelco Discovery RP Amide C16 HPLC system with UV detection at 310 nm as described previously.^44,75 Mobile phase and chromatographic conditions were as follows: solvent A, 5% CH3CN/95% buffer (25 mM KH2PO4+2.5 mM 1-octanesulfonic acid, pH 3.0); solvent B, 60% CH3CN/40% buffer.
# Tissue samples of animals treated with 11 were prepared for HPLC analysis by homogenizing them in 0.5 N HClO4 at a ratio of 1:3 (w/v). Then, as a rinse, CH3OH at a ratio of 1:3 (w/v) was added, and the mixture was stored at −20° C. for 30 min. This homogenate was centrifuged. The supernatant was diluted with 95% buffer (25 mM KH2PO4, pH 3.0)/5% CH3CN, vortexed, and filtered with a 0.2 μm membrane. Analytical separation was performed on a Supelco Ascentis Express RP-Amide HPLC system with UV detection at 310 nm as described previously. Mobile phase and chromatographic conditions were as for 8.
# Ligand concentrations were calculated from the peak area fitted to calibration curves by nonweighted least-squares linear regression with Shimadzu Class-VP 7.4 software.
# [8] = as above; format: in vivo, Sprague-Dawley rats
# [9] = rats, cited from earlier work
# [10] = rats; cited from earlier work; remark: listed apart in the source
structure (smiles),measurement,setting,value
"C[C@]1(C(=O)O)CSC(c2ncccc2O)=N1 [Compound 1, (S)-4,5-dihydro-2-(3-hydroxy-2-pyridinyl)-4-methyl-4-thiazolecarboxylic acid]",Log Papp,[1],−1.77
same,Rodent ICE (%),"[2]; po, 150 μmol/kg",5.5±3.2%
same,Primate ICE (%),"[3]; po, 150 μmol/kg, historical",16.1±8.5%
same,cumulative formation constant,[4],4e+29 M⁻¹
same,cumulative formation constant,[4]; unit not given,4×10^29
same,nephrotoxicity,[5],severe nephrotoxicity; also recorded: unacceptable renal toxicity
"C[C@]1(C(=O)O)CSC(c2ccc(O)cc2O)=N1 [Compound 2, (S)-2-(2,4-dihydroxyphenyl)-4,5-dihydro-4-methyl-4-thiazolecarboxylic acid]",Log Papp,[1],−1.05
same,Rodent ICE (%),"[2]; po, 300 μmol/kg, historical",1.1±0.8%
same,Primate ICE (%),"[3]; po, 150 μmol/kg, historical",16.8±7.2%
same,tolerability in patients,"[6]; 5, 10, or 15 mg/kg/day once daily for up to 12 weeks",well tolerated
same,renal toxicity in patients,"[6]; twice daily 12.5 mg/kg (25 mg/kg/d), three patients after 4-5 weeks",unacceptable renal toxicity
"COCCOCCOc1ccc(C2=N[C@@](C)(C(=O)O)CS2)c(O)c1 [Compound 7, (S)-4,5-dihydro-2-[2-hydroxy-4-(3,6-dioxaheptyloxy)phenyl]-4-methyl-4-thiazolecarboxylic acid]",Log Papp,[1],−0.89
same,share of total drug concentration,[7],95%
same,Rodent ICE (%),"[2]; po, 300 μmol/kg, 48 hour sample collection period, historical",26.7 ± 4.7%
same,Primate ICE (%),"[3]; po, 75 μmol/kg, as monosodium salt, historical",28.7±12.4%
same,Primate ICE (%),"[3]; po, 75 μmol/kg, in capsules, historical",26.3 ± 9.9%
same,cleavage of 7 to 2,[8]; sc 7,no cleavage to 2; also recorded: does not sustain metabolic cleavage at the 4′-(HO) to yield 2
same,metabolism of 7 to 8 and 9 in tissues,"[8]; sc 7, HPLC of tissues",cleavage of the terminal methyl of 7 to the corresponding alcohol 8 did occur
same,histopathology,[9]; extensive tissues,no drug-related abnormalities were identified
same,CBC and serum chemistries,"[9]; po s.i.d. 28 d (56.9-170.7 μmol/kg/day), s.i.d. 10 d (384 μmol/kg/d), b.i.d. 7 d (474 μmol/kg/d)",No drug-related abnormalities were found
same,BUN and SCr levels,[9]; same regimens,within the normal range
same,urinary Kim-1 excretion,[9]; up to 28 days,did not elicit any increases in urinary Kim-1 excretion
"CC(=O)N(O)CCCCCNC(=O)CCC(=O)N(O)CCCCCNC(=O)CCC(=O)N(O)CCCCCN [DFO, desferrioxamine B]",Rodent ICE (%),"[2]; sc, 150 μmol/kg",2.5 ± 0.7%
same,Primate ICE (%),"[3]; sc, 150 μmol/kg",5.5 ± 0.9%
same,effect on colitis,[10],prevent acetic acid-induced colitis
